The text below walks through data of ChEMBL document CHEMBL5131441, “De-novo designed β-lysine derivatives can both augment and diminish the proliferation rates of E. coli through the action of Elongation Factor P” (Bioorg Med Chem Lett, 2022).

pIC50: −log10 of the molar value. Activity calls are given as the source filed them. The calls are words filed in the database; no cut-off is given here.

The test system of data set [1] is Escherichia coli. Description: Antibacterial activity against Escherichia coli K12 harbouring elongation factor P deltayjeK variant assessed as reduction in bacterial growth at 500 uM incubated for 240 mins by turbidity based analysis. The class given is functional, organism-based.
Data set [2] is described as follows: Cytotoxicity against HEK293 cells assessed as cell survival rate at 50 uM relative to control. The class given is toxicity, cell-based. The settings on record: human, read-out: Survival.
The nature of data set [3]: Cytotoxicity against HEK293 cells assessed as inhibition of cell growth. The class given is toxicity, cell-based. The settings on record: human.
The subject of data set [4] is Escherichia coli. Description: Antibacterial activity against Escherichia coli K12 harbouring wild type elongation factor P at 500 uM incubated for 240 mins by turbidity based analysis. The class given is functional, organism-based.
Data set [5] is described as follows: Cytotoxicity against HEK293 cells assessed as cell survival rate at 500 uM relative to control. The class given is toxicity, cell-based. Conditions: human, read-out: Survival.
Data set [6] deals with Escherichia coli. The data set is described as follows: Antibacterial activity against Escherichia coli K12 harbouring elongation factor P deltayjeK variant assessed as reduction in bacterial growth incubated for 240 mins by turbidity based analysis. The class given is functional, organism-based.
In data set [7] the test system is Escherichia coli. The data set is described as follows: Antibacterial activity against Escherichia coli K12 harbouring elongation factor P deltapoxA variant assessed as reduction in bacterial growth at 500 uM incubated for 240 mins by turbidity based analysis. The class given is functional, organism-based.
In data set [8] the test system is Escherichia coli. The data set is described as follows: Antibacterial activity against Escherichia coli K12 harbouring elongation factor P delta-efp variant assessed as reduction in bacterial growth at 500 uM incubated for 240 mins by turbidity based analysis. The class given is functional, organism-based.
The test system of data set [9] is Escherichia coli. Description: Antibacterial activity against Escherichia coli K12 harbouring elongation factor P deltayjeK variant assessed as restoration in bacterial growth at 500 uM incubated for 240 mins in presence of gentamicin by turbidity based analysis. The class given is functional, organism-based.

Take `NCCCCCCCCCCNCCCC(N)CC(=O)O` (racemic): the outcome in [1] and in data set [4] was Active. In addition, in data set [2], the viability at 50 µM worked out at 81%. The pIC50 (commonly the negative decadic logarithm of the IC50, by convention in mol/L) in data set [3] was 3.60. The viability at 500 µM in [5] is 0%.
Take GENTAMICIN: the result in data set [1] was Active. Besides, in [6], the MIC – broadly, the lowest concentration found to suppress growth – was 6 µg/mL.
With `NCCCCCCCCCCCCNCCCC(N)CC(=O)O` (racemic), the result in data set [7], in data set [1], in data set [8] and in [4] was Active. For the same compound, the viability at 50 µM in data set [2] came to 14%.
Turning to `NC(CCCNCc1ccccc1)CC(=O)O` (racemic), in data set [9], the result was Active.
For the compound `NCCCCC(N)CC(=O)O` (racemic), in data set [1], the outcome was Active.
For the compound `CCCCCCNCCCC(N)CC(=O)O` (racemic), in [3], the pIC50 was 3.96. Further, the outcome in [9] was Active.
Consider `CCCNCCCC(N)CC(=O)O` (racemic), for which the result in data set [9] was Active.
`CNCCCC(N)CC(=O)O` (racemic): the result in [9] was Active.
As to `CCNCCCC(N)CC(=O)O` (racemic), the outcome in data set [9] was Active.
Turning to `NCCCCCCCCNCCCC(N)CC(=O)O` (racemic), the outcome in [9] was Active.
On to `CC(=O)NCCCC(N)CC(=O)O` (racemic), for which the outcome in [9] was Active.
On to `NCCCCCCCCCCCNCCCC(N)CC(=O)O` (racemic), for which the outcome in [4] was Active.
